Test results taken from ChEMBL document CHEMBL1921682, “Molecular properties prediction and synthesis of novel 1,3,4-oxadiazole analogues as potent antimicrobial and antitubercular agents” (Bioorg Med Chem Lett, 2011).
In brackets after ≈: the same amount, converted by molar mass.

Legend:
Aspergillus niger = assay: Antifungal activity against Aspergillus niger NCIM 1196 by agar diffusion method; format: functional
[1] = system: Mycobacterium tuberculosis; assay: microbe, parasite or virus in culture; settings: H37Rv
Description: Antimycobacterial activity against Mycobacterium tuberculosis H37Rv by agar double dilution technique

Pseudomonas aeruginosa = assay: Antibacterial activity against Pseudomonas aeruginosa ATCC 10145 by broth dilution technique; format: functional
[2] = Octanol-water partition coefficient, log P of the compound; format: physicochemical
Candida albicans = assay: Antifungal activity against Candida albicans NCIM 3417 by agar diffusion method; format: functional
Bacillus subtilis = assay: Antibacterial activity against Bacillus subtilis NCIM 2439 by broth dilution technique; format: functional
Escherichia coli = assay: Antibacterial activity against Escherichia coli NCIM 5051 by broth dilution technique; format: functional
Staphylococcus aureus = assay: Antibacterial activity against Staphylococcus aureus NCIM 2079 by broth dilution technique; format: functional

Structure (SMILES)	MIC (Aspergillus niger) [µg/mL]	MIC90 [1] [µM]	MIC (Pseudomonas aeruginosa) [µg/mL]	logP [2]	MIC (Candida albicans) [µg/mL]	MIC (Bacillus subtilis) [µg/mL]	MIC (Escherichia coli) [µg/mL]	MIC (Staphylococcus aureus) [µg/mL]
Cc1c(NCc2nnc(-c3ccccc3Cl)o2)c(=O)n(-c2ccccc2)n1C	256 (≈ 647 µM)	1.97 (≈ 0.78 µg/mL)	8 (≈ 20.2 µM)	2.72	256 (≈ 647 µM)	4 (≈ 10.1 µM)	4 (≈ 10.1 µM)	4 (≈ 10.1 µM)
Cc1c(NCc2nnc(-c3ccc(Cl)cc3)o2)c(=O)n(-c2ccccc2)n1C	256 (≈ 647 µM)	3.94 (≈ 1.56 µg/mL)	8 (≈ 20.2 µM)	2.7	128 (≈ 323 µM)	8 (≈ 20.2 µM)	4 (≈ 10.1 µM)	8 (≈ 20.2 µM)
Cc1c(NCc2nnc(-c3ccc(N)cc3)o2)c(=O)n(-c2ccccc2)n1C	128 (≈ 340 µM)	4.15 (≈ 1.56 µg/mL)	64 (≈ 170 µM)	1.13	128 (≈ 340 µM)	32 (≈ 85 µM)	16 (≈ 42.5 µM)	16 (≈ 42.5 µM)
Cc1c(NCc2nnc(-c3ccncc3)o2)c(=O)n(-c2ccccc2)n1C	256 (≈ 706 µM)	0.78 (≈ 0.283 µg/mL)	32 (≈ 88.3 µM)	0.8	256 (≈ 706 µM)	16 (≈ 44.2 µM)	16 (≈ 44.2 µM)	16 (≈ 44.2 µM)
Cc1c(NCc2nnc(-c3ccccc3O)o2)c(=O)n(-c2ccccc2)n1C	8 (≈ 21.2 µM)	> 13.2	128 (≈ 339 µM)	1.71	16 (≈ 42.4 µM)	64 (≈ 170 µM)	128 (≈ 339 µM)	128 (≈ 339 µM)
CC(=O)Oc1ccccc1-c1nnc(CNc2c(C)n(C)n(-c3ccccc3)c2=O)o1	512 (≈ 1220 µM)	> 12.8	512 (≈ 1220 µM)	1.98	512 (≈ 1220 µM)	256 (≈ 610 µM)	256 (≈ 610 µM)	512 (≈ 1220 µM)
Cc1c(NCc2nnc(-c3ccccc3)o2)c(=O)n(-c2ccccc2)n1C	512 (≈ 1420 µM)	10 (≈ 3.61 µg/mL)	512 (≈ 1420 µM)	2.02	512 (≈ 1420 µM)	512 (≈ 1420 µM)	512 (≈ 1420 µM)	512 (≈ 1420 µM)
COc1ccc(-c2nnc(CNc3c(C)n(C)n(-c4ccccc4)c3=O)o2)cc1	16 (≈ 40.9 µM)	> 12.8	> 512	2.07	32 (≈ 81.8 µM)	> 512	256 (≈ 654 µM)	> 512
Cc1ccccc1-c1nnc(CNc2c(C)n(C)n(-c3ccccc3)c2=O)o1	8 (≈ 21.3 µM)	> 13.3	512 (≈ 1360 µM)	2.38	16 (≈ 42.6 µM)	256 (≈ 682 µM)	256 (≈ 682 µM)	256 (≈ 682 µM)
Cc1cccc(-c2nnc(CNc3c(C)n(C)n(-c4ccccc4)c3=O)o2)c1	128 (≈ 341 µM)	> 13.3	> 512	2.39	256 (≈ 682 µM)	> 512	512 (≈ 1360 µM)	> 512
Cc1ccc(-c2nnc(CNc3c(C)n(C)n(-c4ccccc4)c3=O)o2)cc1	4 (≈ 10.7 µM)	10 (≈ 3.75 µg/mL)	512 (≈ 1360 µM)	2.48	4 (≈ 10.7 µM)	512 (≈ 1360 µM)	256 (≈ 682 µM)	512 (≈ 1360 µM)
Cc1c(NCc2nnc(Cc3ccccc3)o2)c(=O)n(-c2ccccc2)n1C	512 (≈ 1360 µM)	10 (≈ 3.75 µg/mL)	256 (≈ 682 µM)	1.64	512 (≈ 1360 µM)	256 (≈ 682 µM)	256 (≈ 682 µM)	256 (≈ 682 µM)
Cc1c(NCc2nnc(COc3ccccc3)o2)c(=O)n(-c2ccccc2)n1C	> 512	12.8 (≈ 5 µg/mL)	128 (≈ 327 µM)	0.98	512 (≈ 1310 µM)	128 (≈ 327 µM)	64 (≈ 164 µM)	128 (≈ 327 µM)
Cc1c(NCc2nnc(-c3cccs3)o2)c(=O)n(-c2ccccc2)n1C	128 (≈ 348 µM)	6.81 (≈ 2.5 µg/mL)	8 (≈ 21.8 µM)	1.9	256 (≈ 697 µM)	16 (≈ 43.5 µM)	8 (≈ 21.8 µM)	8 (≈ 21.8 µM)
O=C(O)c1cn(C2CC2)c2cc(N3CCNCC3)c(F)cc2c1=O [CIPROFLOXACIN]	–	–	4 (≈ 12.1 µM)	–	–	4 (≈ 12.1 µM)	–	4 (≈ 12.1 µM)
OC(Cn1cncn1)(Cn1cncn1)c1ccc(F)cc1F [FLUCONAZOLE]	2 (≈ 6.53 µM)	–	–	–	1 (≈ 3.27 µM)	–	–	–
NNC(=O)c1ccncc1 [ISONIAZID]	–	0.78 (≈ 0.107 µg/mL)	–	–	–	–	–	–
